Experimental data taken from patent publication US10975064B2, “RIP1 inhibitory compounds and methods for making and using the same” (Rigel Pharmaceuticals, Inc., priority 2018, dated 2021).

Tested on: TNF-alpha induced hypothermia
Experiment: acute hypothermia mouse model
Format: in vivo
Conditions: 15 mg/kg, oral gavage, C57BL/6 mice
Description: In this example, an acute hypothermia mouse model assay was used to evaluate the ability of compounds disclosed herein to inhibit TNF-alpha induced hypothermia. Female C57BL/6 mice are randomly grouped and weighed on Day-1. On the day of the study (Day 0), mice are administered vehicle or test article by oral gavage. Fifteen minutes after oral administration of test agents, each mouse is administered an intraperitoneal (IP) injection of solution containing recombinant human tumor necrosis factor alpha (TNF-a, 25.0 μg) and zVAD-FMK (200 μg). Body temperature is measured at hour zero (before IP injections) and every hour via rectal probe temperature measuring device. Three (3) hours after IP injections of TNF-a and zVAD/FMK, mice are euthanized by CO2 asphyxiation and blood is collected via cardiac puncture. Serum and plasma are harvested for determination of cytokine and compound levels, respectively. Separate groups of mice (satellite mice) are included for the determination of compound levels in plasma at the time of administration of TNFa/zVAD-FMK. (S)-5-benzyl-N-(5-methyl-4-oxo-2,3,4,5-tetrahydrobenzo[b][1,4]oxazepin-3-yl)-4H-1,2,4-triazole-3-carboxamide (WO 2014/125444), having a structure as illustrated below, was used as a comparative compound and was examined using the same assay protocol.

Compound: CN1C(=O)[C@@H](NC(=O)c2n[nH]c(Cc3ccccc3)n2)COc2ccc(N3CC4(CCOCC4)C3)cc21 [Compound I-5, (S)-5-benzyl-N-(5-methyl-4-oxo-7-(7-oxa-2-azaspiro[3.5]nonan-2-yl)-2,3,4,5-tetrahydrobenzo[b][1,4]oxazepin-3-yl)-1H-1,2,4-triazole-3-carboxamide]
- inhibition of TNF-alpha induced hypothermia: 81%
